Results: ChEMBL document CHEMBL3137667, “[Drug-induced liver injury; fourteenth updated edition of the bibliographic database of liver injuries and related drugs]” (Gastroenterol Clin Biol, 2004)

What was measured:
[1] = Highest frequency of moderate liver toxicity observed during clinical trials, expressed as a percentage. [column '% BIOL' in source]; conditions: human
[2] = Highest frequency of acute liver toxicity observed during clinical trials, expressed as a percentage. [column '% AIGUE' in source]; conditions: human
[3] = Comments (NB not yet translated). [column 'COMMENTAIRES' in source]; conditions: human
[4] = Times to onset, minimal and maximal, observed in the indexed observations. [column 'DELAI' in source]; conditions: human
[5] = human, serum
[6] = human, serum; remark: listed apart in the source
[7] = human
[8] = human; remark: listed apart in the source
[9] = human; remark: listed apart in the source
[10] = human, serum, 4383 h
[11] = human; remark: listed apart in the source
[12] = human; remark: listed apart in the source
[13] = human; remark: listed apart in the source
[14] = human; remark: listed apart in the source
[15] = human; remark: listed apart in the source
[16] = human; remark: listed apart in the source
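Throughout, for Hepatotoxicity (association with vascular disease): count of indexed literature references reporting vascular liver injury in humans, e.g. peliosis hepatitis, hepatic veno-occlusive disease or Budd-Chiari syndrome.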
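Throughout, for Hepatotoxicity (benign tumour): value is a count of indexed literature references citing a benign tumour confirmed by histopathology.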
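Throughout, for Hepatotoxicity (choleostasis): human cholestatic liver injury, shown by histopathology or by peak ALT or AST elevation over alkaline phosphatase ratio below 2, value counts indexed literature reports.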
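Throughout, for Hepatotoxicity (chronic liver disease): chronic liver injury confirmed by histopathology or persistently raised serum aminotransferase activity beyond 6 months, value given as the count of indexed literature references.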
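Throughout, for Hepatotoxicity (cirrhosis): value is a count of indexed literature references reporting cirrhosis confirmed by histopathology.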
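Throughout, for Hepatotoxicity (cytolytic): human cytolytic liver injury, shown by histopathology or by a ratio above 5 of peak ALT or AST elevation to alkaline phosphatase elevation, value counts indexed references.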
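Throughout, for Hepatotoxicity (granulomatous hepatitis): value is a count of indexed literature references reporting granulomatous liver disease confirmed by histopathology.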
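Throughout, for Hepatotoxicity (malignant tumour): malignant tumour confirmed by histopathology, value gives the count of indexed literature references reporting it.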
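Throughout, for Hepatotoxicity (severe hepatitis): human clinical data: severe hepatitis, meaning potentially life-threatening liver failure or clinically observed cases, the value counts how many indexed literature references report it.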
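Throughout, for Hepatotoxicity (steatosis): steatosis confirmed by histopathology, value is the count of indexed references.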

Molecule	Hepatotoxicity (moderate) [1] [%]	Hepatotoxicity (acute) [2] [%]	Hepatotoxicity (comment) [3]	Hepatotoxicity (time to onset) [4]	Hepatotoxicity (moderate) [5]	Hepatotoxicity (acute) [6]	Hepatotoxicity (cytolytic) [7]	Hepatotoxicity (choleostasis) [8]	Hepatotoxicity (severe hepatitis) [9]	Hepatotoxicity (chronic liver disease) [10]	Hepatotoxicity (cirrhosis) [11]	Hepatotoxicity (granulomatous hepatitis) [12]	Hepatotoxicity (association with vascular disease) [13]	Hepatotoxicity (steatosis) [14]	Hepatotoxicity (malignant tumour) [15]	Hepatotoxicity (benign tumour) [16]	Hepatotoxicity (moderate) ([1]; Liver) [%]	Hepatotoxicity (acute) ([2]; Liver) [%]	Hepatotoxicity (severe hepatitis) ([9]; Liver)
C[C@]12CC[C@H]3[C@@H](CCC4=CC(=O)CC[C@@]43C)[C@@H]1CC[C@@H]2O [TESTOSTERONE]	0	0	ANGIOSARCOME CHOLESTASE_PROLONGEE PELIOSE	3 months - 11 years	0	3	0	3	1	0	0	0	6	0	2	3	–	–	–
O=C1CCC(N2C(=O)c3ccccc3C2=O)C(=O)N1 (stereo unspecified) [THALIDOMIDE]	5.6	0	REACTIVATION_HVC	5 days - 7 months	3	2	2	0	0	0	0	0	0	0	0	0	–	–	–
CSc1ccc2c(c1)N(CCC1CCCCN1C)c1ccccc1S2 (stereo unspecified) [THIORIDAZINE]	–	–	RC/CHLORPROMAZINE	1 week - 1 year	2	5	2	5	–	1	0	0	0	0	0	0	0	0	1
Cc1cc(Br)c(O)c2ncccc12 [TILBROQUINOL]	0	0	CHOLANGITE	4 days	0	1	0	0	0	0	0	1	0	0	0	0	–	–	–
Cc1ccc(O)c2ncccc12 [TILIQUINOL]	0	0	CHOLANGITE	4 days	0	1	0	0	0	0	0	1	0	0	0	0	–	–	–
CN1CCN(CCCN2c3ccccc3Sc3ccc(C(F)(F)F)cc32)CC1 [TRIFLUOPERAZINE]	0	0	#CBP	2 weeks - 8 years	2	5	0	4	0	0	1	0	0	0	0	0	–	–	–
Nc1ncnc2c1ncn2[C@@H]1O[C@H](CO)[C@@H](O)[C@@H]1O [VIDARABINE]	17	0	AGGRAVATION_HEPATITE_VIRALE	1 week	5	0	0	0	1	0	0	0	0	0	0	0	–	–	–
ANISTREPLASE	0	0	HEMATOME_SOUS_CAPSULAIRE	6 days	0	1	1	0	0	0	0	0	0	0	0	0	–	–	–
ETANERCEPT	5	0	CHOLECYSTITE	4 weeks - 14 weeks	2	0	0	0	0	0	0	0	0	0	0	0	–	–	–
GONADOTROPIN, SERUM	0	0	HNF	39 days - 6 months	0	1	1	0	0	0	0	0	0	0	0	1	–	–	–
INFLIXIMAB	31.3	0	CHOLANGITE CHOLECYSTITE REACTIVATION_HVB	19 days - 19 months	3	8	4	2	2	0	0	0	0	0	0	0	–	–	–
